System: PBMC
Test: Immunomodulatory activity in human PBMC assessed as reduction in timothy grass induced IL-13 level after 6 days
Format: functional, cell-based
Details: dose 0.01-10000 nM, time 6.0 day

For `CCC[C@H](C)Oc1nc(N)c2[nH]c(=O)n(CCCCCN3CCCCC3)c2n1` [GSK-2245035], the Activity was “Dose-Dependent Effect”.

Source: ChEMBL document CHEMBL5252515, “Discovery of 6-Amino-2-{[(1S)-1-methylbutyl]oxy}-9-[5-(1-piperidinyl)pentyl]-7,9-dihydro-8H-purin-8-one (GSK2245035), a Highly Potent and Selective Intranasal Toll-Like Receptor 7 Agonist for the Treatment of Asthma” (J Med Chem, 2016)
